# Assay results from the supplement of paper PMC10307832.
# Experiments:
# Test in all cases: relative viability (nuclei count vs DMSO), 5 days (fraction); higher = more cells survive
# [1] = compound: COc1nc(N)nc2c1ncn2[C@@H]1O[C@H](CO)[C@@H](O)[C@@H]1O [Nelarabine] + Nc1ncn([C@H]2C[C@H](O)[C@@H](CO)O2)c(=O)n1 [Decitabine] (partner 2 µM)
# Outline: (§1)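 Medians of duplicate plates are given as relative viability. That measure is the nuclei count in treated wells divided by the count in vehicle wells. Counts were taken on 4× images of lung cancer cell lines in 1536-well plates, 5 days after pin-tool dosing the day after seeding with one drug alone or a fixed anchor-drug dose plus five library-drug doses (not always all listed) in √10 steps.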
# [2] = compound: C=CCn1c(=O)c2cnc(Nc3ccc(N4CCN(C)CC4)cc3)nc2n1-c1cccc(C(C)(C)O)n1 [Adavosertib] + CS(=O)(=O)N1CCN(Cc2cc3nc(-c4cccc5[nH]ncc45)nc(N4CCOCC4)c3s2)CC1 [Pictilisib] (partner 1 µM)
# Outline: as §1
# [3] = compound: COc1nc(N)nc2c1ncn2[C@@H]1O[C@H](CO)[C@@H](O)[C@@H]1O [Nelarabine] + COc1cccc2cc(-c3nc([C@H]4CC[C@H](C(=O)O)CC4)n4ncnc(N)c34)[nH]c12 [OSI-027] (partner 0.5 µM)
# Outline: as §1
# [4] = compound: C=CCn1c(=O)c2cnc(Nc3ccc(N4CCN(C)CC4)cc3)nc2n1-c1cccc(C(C)(C)O)n1 [Adavosertib] + CC(=O)Nc1cccc(-n2c(=O)n(C3CC3)c(=O)c3c(Nc4ccc(I)cc4F)n(C)c(=O)c(C)c32)c1 [Trametinib] (partner 0.02 µM)
# Outline: as §1
cell line,measurement,setting,value
EMC-BAC-2,relative viability,[1]; first compound 0.01 µM,0.885
same,relative viability,[1]; first compound 0.03162 µM,1.11
same,relative viability,[1]; first compound 0.1 µM,0.912
same,relative viability,[1]; first compound 0.3162 µM,0.864
same,relative viability,[1]; first compound 1 µM,0.995
same,relative viability,[2]; first compound 0.01 µM,0.544
same,relative viability,[2]; first compound 0.03162 µM,0.56
same,relative viability,[2]; first compound 0.1 µM,0.583
same,relative viability,[2]; first compound 0.3162 µM,0.544
same,relative viability,[3]; first compound 0.01 µM,0.393
same,relative viability,[3]; first compound 0.03162 µM,0.41
same,relative viability,[3]; first compound 0.1 µM,0.398
same,relative viability,[3]; first compound 0.3162 µM,0.36
same,relative viability,[3]; first compound 1 µM,0.377
same,relative viability,[4]; first compound 0.03162 µM,0.938
same,relative viability,[4]; first compound 0.1 µM,0.894
same,relative viability,[4]; first compound 0.3162 µM,0.927
